# ± gives the expanded uncertainty stated by the source.
# Experiment: excess molar enthalpy (molar enthalpy of mixing); xn = mol fraction of the nth substance listed
# Settings: 298.15 K, 101 kPa, Liquid, Calvet calorimetry
structure (smiles),measurement,setting,value
CCCCCCCC[n+]1ccn(C)c1.F[B-](F)(F)F [1-methyl-3-octylimidazolium tetrafluoroborate] + CCCO,excess molar enthalpy,x1 = 0.136,0.302 ± 0.00741 kcal/mol
same,excess molar enthalpy,x1 = 0.138,0.306 ± 0.00741 kcal/mol
same,excess molar enthalpy,x1 = 0.141,0.311 ± 0.00741 kcal/mol
same,excess molar enthalpy,x1 = 0.144,0.317 ± 0.00789 kcal/mol
same,excess molar enthalpy,x1 = 0.146,0.322 ± 0.00789 kcal/mol
same,excess molar enthalpy,x1 = 0.149,0.327 ± 0.00789 kcal/mol
same,excess molar enthalpy,x1 = 0.152,0.333 ± 0.00789 kcal/mol
same,excess molar enthalpy,x1 = 0.156,0.339 ± 0.00813 kcal/mol
same,excess molar enthalpy,x1 = 0.159,0.345 ± 0.00813 kcal/mol
same,excess molar enthalpy,x1 = 0.163,0.352 ± 0.00837 kcal/mol
same,excess molar enthalpy,x1 = 0.166,0.358 ± 0.0086 kcal/mol
same,excess molar enthalpy,x1 = 0.169,0.363 ± 0.00837 kcal/mol
same,excess molar enthalpy,x1 = 0.173,0.368 ± 0.00837 kcal/mol
same,excess molar enthalpy,x1 = 0.176,0.374 ± 0.00884 kcal/mol
same,excess molar enthalpy,x1 = 0.179,0.38 ± 0.00884 kcal/mol
same,excess molar enthalpy,x1 = 0.183,0.385 ± 0.00884 kcal/mol
same,excess molar enthalpy,x1 = 0.187,0.391 ± 0.00908 kcal/mol
same,excess molar enthalpy,x1 = 0.19,0.397 ± 0.00932 kcal/mol
same,excess molar enthalpy,x1 = 0.194,0.404 ± 0.00908 kcal/mol
same,excess molar enthalpy,x1 = 0.199,0.411 ± 0.00932 kcal/mol
same,excess molar enthalpy,x1 = 0.203,0.419 ± 0.00956 kcal/mol
same,excess molar enthalpy,x1 = 0.208,0.426 ± 0.0098 kcal/mol
same,excess molar enthalpy,x1 = 0.212,0.435 ± 0.01 kcal/mol
same,excess molar enthalpy,x1 = 0.217,0.443 ± 0.01 kcal/mol
same,excess molar enthalpy,x1 = 0.223,0.451 ± 0.01 kcal/mol
same,excess molar enthalpy,x1 = 0.228,0.46 ± 0.0103 kcal/mol
same,excess molar enthalpy,x1 = 0.234,0.469 ± 0.0105 kcal/mol
same,excess molar enthalpy,x1 = 0.24,0.479 ± 0.0108 kcal/mol
same,excess molar enthalpy,x1 = 0.247,0.489 ± 0.011 kcal/mol
same,excess molar enthalpy,x1 = 0.253,0.5 ± 0.011 kcal/mol
same,excess molar enthalpy,x1 = 0.261,0.511 ± 0.0112 kcal/mol
same,excess molar enthalpy,x1 = 0.268,0.523 ± 0.0115 kcal/mol
same,excess molar enthalpy,x1 = 0.276,0.534 ± 0.0117 kcal/mol
same,excess molar enthalpy,x1 = 0.285,0.546 ± 0.012 kcal/mol
same,excess molar enthalpy,x1 = 0.29,0.554 ± 0.0122 kcal/mol
same,excess molar enthalpy,x1 = 0.296,0.562 ± 0.0122 kcal/mol
same,excess molar enthalpy,x1 = 0.302,0.57 ± 0.0124 kcal/mol
same,excess molar enthalpy,x1 = 0.309,0.577 ± 0.0124 kcal/mol
same,excess molar enthalpy,x1 = 0.315,0.585 ± 0.0127 kcal/mol
same,excess molar enthalpy,x1 = 0.322,0.592 ± 0.0129 kcal/mol
same,excess molar enthalpy,x1 = 0.329,0.6 ± 0.0129 kcal/mol
same,excess molar enthalpy,x1 = 0.337,0.607 ± 0.0131 kcal/mol
same,excess molar enthalpy,x1 = 0.345,0.614 ± 0.0131 kcal/mol
same,excess molar enthalpy,x1 = 0.353,0.62 ± 0.0134 kcal/mol
same,excess molar enthalpy,x1 = 0.362,0.624 ± 0.0134 kcal/mol
same,excess molar enthalpy,x1 = 0.371,0.629 ± 0.0134 kcal/mol
same,excess molar enthalpy,x1 = 0.381,0.632 ± 0.0134 kcal/mol
same,excess molar enthalpy,x1 = 0.391,0.634 ± 0.0136 kcal/mol
same,excess molar enthalpy,x1 = 0.401,0.635 ± 0.0136 kcal/mol
same,excess molar enthalpy,x1 = 0.413,0.635 ± 0.0136 kcal/mol
same,excess molar enthalpy,x1 = 0.425,0.636 ± 0.0136 kcal/mol
same,excess molar enthalpy,x1 = 0.437,0.635 ± 0.0136 kcal/mol
same,excess molar enthalpy,x1 = 0.451,0.634 ± 0.0136 kcal/mol
same,excess molar enthalpy,x1 = 0.465,0.632 ± 0.0134 kcal/mol
same,excess molar enthalpy,x1 = 0.48,0.628 ± 0.0134 kcal/mol
same,excess molar enthalpy,x1 = 0.496,0.623 ± 0.0134 kcal/mol
same,excess molar enthalpy,x1 = 0.513,0.617 ± 0.0131 kcal/mol
same,excess molar enthalpy,x1 = 0.532,0.61 ± 0.0131 kcal/mol
same,excess molar enthalpy,x1 = 0.552,0.598 ± 0.0129 kcal/mol
same,excess molar enthalpy,x1 = 0.56,0.592 ± 0.0127 kcal/mol
same,excess molar enthalpy,x1 = 0.569,0.586 ± 0.0127 kcal/mol
same,excess molar enthalpy,x1 = 0.578,0.579 ± 0.0124 kcal/mol
same,excess molar enthalpy,x1 = 0.587,0.571 ± 0.0122 kcal/mol
same,excess molar enthalpy,x1 = 0.596,0.563 ± 0.0122 kcal/mol
same,excess molar enthalpy,x1 = 0.606,0.555 ± 0.012 kcal/mol
same,excess molar enthalpy,x1 = 0.616,0.545 ± 0.0117 kcal/mol
same,excess molar enthalpy,x1 = 0.627,0.535 ± 0.0115 kcal/mol
same,excess molar enthalpy,x1 = 0.638,0.525 ± 0.0115 kcal/mol
same,excess molar enthalpy,x1 = 0.649,0.513 ± 0.0112 kcal/mol
same,excess molar enthalpy,x1 = 0.66,0.501 ± 0.011 kcal/mol
same,excess molar enthalpy,x1 = 0.672,0.488 ± 0.0105 kcal/mol
same,excess molar enthalpy,x1 = 0.685,0.474 ± 0.0103 kcal/mol
same,excess molar enthalpy,x1 = 0.698,0.458 ± 0.01 kcal/mol
same,excess molar enthalpy,x1 = 0.711,0.443 ± 0.0098 kcal/mol
same,excess molar enthalpy,x1 = 0.725,0.425 ± 0.00932 kcal/mol
same,excess molar enthalpy,x1 = 0.74,0.407 ± 0.00908 kcal/mol
same,excess molar enthalpy,x1 = 0.755,0.387 ± 0.0086 kcal/mol
same,excess molar enthalpy,x1 = 0.771,0.366 ± 0.00837 kcal/mol
same,excess molar enthalpy,x1 = 0.787,0.343 ± 0.00789 kcal/mol
same,excess molar enthalpy,x1 = 0.804,0.319 ± 0.00741 kcal/mol
same,excess molar enthalpy,x1 = 0.822,0.293 ± 0.00693 kcal/mol
same,excess molar enthalpy,x1 = 0.841,0.265 ± 0.00645 kcal/mol
same,excess molar enthalpy,x1 = 0.86,0.235 ± 0.00598 kcal/mol
same,excess molar enthalpy,x1 = 0.881,0.202 ± 0.0055 kcal/mol
same,excess molar enthalpy,x1 = 0.902,0.168 ± 0.00478 kcal/mol
same,excess molar enthalpy,x1 = 0.925,0.131 ± 0.0043 kcal/mol
same,excess molar enthalpy,x1 = 0.949,0.0915 ± 0.00406 kcal/mol
same,excess molar enthalpy,x1 = 0.974,0.0476 ± 0.00359 kcal/mol
CCCCCCCC[n+]1ccn(C)c1.F[B-](F)(F)F [1-methyl-3-octylimidazolium tetrafluoroborate] + CCO,excess molar enthalpy,x1 = 0.135,0.382 ± 0.00908 kcal/mol
same,excess molar enthalpy,x1 = 0.137,0.386 ± 0.00884 kcal/mol
same,excess molar enthalpy,x1 = 0.14,0.391 ± 0.00884 kcal/mol
same,excess molar enthalpy,x1 = 0.143,0.396 ± 0.00908 kcal/mol
same,excess molar enthalpy,x1 = 0.146,0.401 ± 0.00908 kcal/mol
same,excess molar enthalpy,x1 = 0.149,0.406 ± 0.00932 kcal/mol
same,excess molar enthalpy,x1 = 0.152,0.411 ± 0.00932 kcal/mol
same,excess molar enthalpy,x1 = 0.155,0.415 ± 0.00932 kcal/mol
same,excess molar enthalpy,x1 = 0.159,0.421 ± 0.00956 kcal/mol
same,excess molar enthalpy,x1 = 0.162,0.426 ± 0.00956 kcal/mol
same,excess molar enthalpy,x1 = 0.166,0.431 ± 0.00956 kcal/mol
same,excess molar enthalpy,x1 = 0.17,0.437 ± 0.0098 kcal/mol
same,excess molar enthalpy,x1 = 0.174,0.442 ± 0.0098 kcal/mol
same,excess molar enthalpy,x1 = 0.178,0.448 ± 0.0098 kcal/mol
same,excess molar enthalpy,x1 = 0.183,0.454 ± 0.01 kcal/mol
same,excess molar enthalpy,x1 = 0.188,0.46 ± 0.01 kcal/mol
same,excess molar enthalpy,x1 = 0.193,0.466 ± 0.0103 kcal/mol
same,excess molar enthalpy,x1 = 0.198,0.472 ± 0.0103 kcal/mol
same,excess molar enthalpy,x1 = 0.204,0.479 ± 0.0105 kcal/mol
same,excess molar enthalpy,x1 = 0.209,0.486 ± 0.0108 kcal/mol
same,excess molar enthalpy,x1 = 0.216,0.494 ± 0.0108 kcal/mol
same,excess molar enthalpy,x1 = 0.222,0.502 ± 0.011 kcal/mol
same,excess molar enthalpy,x1 = 0.23,0.51 ± 0.0112 kcal/mol
same,excess molar enthalpy,x1 = 0.237,0.519 ± 0.0115 kcal/mol
same,excess molar enthalpy,x1 = 0.242,0.527 ± 0.0117 kcal/mol
same,excess molar enthalpy,x1 = 0.247,0.534 ± 0.0117 kcal/mol
same,excess molar enthalpy,x1 = 0.253,0.542 ± 0.012 kcal/mol
same,excess molar enthalpy,x1 = 0.259,0.55 ± 0.012 kcal/mol
same,excess molar enthalpy,x1 = 0.264,0.557 ± 0.0122 kcal/mol
same,excess molar enthalpy,x1 = 0.271,0.565 ± 0.0122 kcal/mol
same,excess molar enthalpy,x1 = 0.277,0.572 ± 0.0124 kcal/mol
same,excess molar enthalpy,x1 = 0.284,0.579 ± 0.0124 kcal/mol
same,excess molar enthalpy,x1 = 0.291,0.586 ± 0.0127 kcal/mol
same,excess molar enthalpy,x1 = 0.299,0.592 ± 0.0127 kcal/mol
same,excess molar enthalpy,x1 = 0.307,0.598 ± 0.0129 kcal/mol
same,excess molar enthalpy,x1 = 0.315,0.603 ± 0.0129 kcal/mol
same,excess molar enthalpy,x1 = 0.324,0.608 ± 0.0129 kcal/mol
same,excess molar enthalpy,x1 = 0.334,0.611 ± 0.0131 kcal/mol
same,excess molar enthalpy,x1 = 0.344,0.614 ± 0.0131 kcal/mol
same,excess molar enthalpy,x1 = 0.354,0.617 ± 0.0131 kcal/mol
same,excess molar enthalpy,x1 = 0.365,0.619 ± 0.0131 kcal/mol
same,excess molar enthalpy,x1 = 0.377,0.621 ± 0.0131 kcal/mol
same,excess molar enthalpy,x1 = 0.39,0.622 ± 0.0131 kcal/mol
same,excess molar enthalpy,x1 = 0.404,0.622 ± 0.0131 kcal/mol
same,excess molar enthalpy,x1 = 0.419,0.621 ± 0.0131 kcal/mol
same,excess molar enthalpy,x1 = 0.435,0.619 ± 0.0131 kcal/mol
same,excess molar enthalpy,x1 = 0.452,0.614 ± 0.0131 kcal/mol
same,excess molar enthalpy,x1 = 0.47,0.608 ± 0.0129 kcal/mol
same,excess molar enthalpy,x1 = 0.49,0.601 ± 0.0129 kcal/mol
same,excess molar enthalpy,x1 = 0.499,0.597 ± 0.0127 kcal/mol
same,excess molar enthalpy,x1 = 0.507,0.593 ± 0.0127 kcal/mol
same,excess molar enthalpy,x1 = 0.517,0.588 ± 0.0127 kcal/mol
same,excess molar enthalpy,x1 = 0.526,0.583 ± 0.0124 kcal/mol
same,excess molar enthalpy,x1 = 0.536,0.577 ± 0.0124 kcal/mol
same,excess molar enthalpy,x1 = 0.546,0.57 ± 0.0122 kcal/mol
same,excess molar enthalpy,x1 = 0.556,0.563 ± 0.0122 kcal/mol
same,excess molar enthalpy,x1 = 0.567,0.555 ± 0.012 kcal/mol
same,excess molar enthalpy,x1 = 0.579,0.546 ± 0.0117 kcal/mol
same,excess molar enthalpy,x1 = 0.591,0.537 ± 0.0115 kcal/mol
same,excess molar enthalpy,x1 = 0.603,0.526 ± 0.0115 kcal/mol
same,excess molar enthalpy,x1 = 0.616,0.515 ± 0.0112 kcal/mol
same,excess molar enthalpy,x1 = 0.629,0.503 ± 0.011 kcal/mol
same,excess molar enthalpy,x1 = 0.643,0.489 ± 0.0105 kcal/mol
same,excess molar enthalpy,x1 = 0.658,0.475 ± 0.0103 kcal/mol
same,excess molar enthalpy,x1 = 0.673,0.458 ± 0.01 kcal/mol
same,excess molar enthalpy,x1 = 0.689,0.441 ± 0.00956 kcal/mol
same,excess molar enthalpy,x1 = 0.706,0.422 ± 0.00932 kcal/mol
same,excess molar enthalpy,x1 = 0.724,0.401 ± 0.00884 kcal/mol
same,excess molar enthalpy,x1 = 0.743,0.379 ± 0.00837 kcal/mol
same,excess molar enthalpy,x1 = 0.762,0.354 ± 0.00789 kcal/mol
same,excess molar enthalpy,x1 = 0.783,0.327 ± 0.00741 kcal/mol
same,excess molar enthalpy,x1 = 0.805,0.297 ± 0.00693 kcal/mol
same,excess molar enthalpy,x1 = 0.828,0.266 ± 0.00645 kcal/mol
same,excess molar enthalpy,x1 = 0.852,0.23 ± 0.00574 kcal/mol
same,excess molar enthalpy,x1 = 0.878,0.193 ± 0.00502 kcal/mol
same,excess molar enthalpy,x1 = 0.906,0.15 ± 0.00454 kcal/mol
same,excess molar enthalpy,x1 = 0.935,0.106 ± 0.00382 kcal/mol
same,excess molar enthalpy,x1 = 0.966,0.0557 ± 0.00335 kcal/mol

# Reference: the NIST ThermoML archive (doi:10.1021/je400709f)
